Results as given in ChEMBL document CHEMBL4627246, “Pyroglutamide-Based P2X7 Receptor Antagonists Targeting Inflammatory Bowel Disease” (J Med Chem, 2020).

Key:
Assay type in all cases: cell-based
HCT-15 = experiment: Cytotoxicity against human HCT15 cells assessed as effect on cell growth at 10 uM incubated for 48 hrs by sulforhodamine B assay; details: hct-15, 48 h
SNB-19 = experiment: Cytotoxicity against human SNB19 cells assessed as effect on cell growth at 10 uM incubated for 48 hrs by sulforhodamine B assay; details: snb-19, 48 h
T47D = experiment: Cytotoxicity against human T47D cells assessed as effect on cell growth at 10 uM incubated for 48 hrs by sulforhodamine B assay
UACC-62 = experiment: Cytotoxicity against human UACC62 cells assessed as effect on cell growth at 10 uM incubated for 48 hrs by sulforhodamine B assay; details: uacc-62, 48 h
HOP-62 = experiment: Cytotoxicity against human HOP62 cells assessed as effect on cell growth at 10 uM incubated for 48 hrs by sulforhodamine B assay; details: hop-62, 48 h
ACHN = experiment: Cytotoxicity against human ACHN cells assessed as effect on cell growth at 10 uM incubated for 48 hrs by sulforhodamine B assay
OVCAR-5 = experiment: Cytotoxicity against human OVCAR5 cells assessed as effect on cell growth at 10 uM incubated for 48 hrs by sulforhodamine B assay; details: ovcar-5, 48 h
Hs-578T = experiment: Cytotoxicity against human Hs 578T cells assessed as effect on cell growth at 10 uM incubated for 48 hrs by sulforhodamine B assay
MDA-MB-231 = experiment: Cytotoxicity against human MDA-MB-231 cells assessed as effect on cell growth at 10 uM incubated for 48 hrs by sulforhodamine B assay; details: mda-mb-231, 48 h
SW-620 = experiment: Cytotoxicity against human SW620 cells assessed as effect on cell growth at 10 uM incubated for 48 hrs by sulforhodamine B assay; details: sw-620, 48 h
PC-3 = experiment: Cytotoxicity against human PC3 cells assessed as effect on cell growth at 10 uM incubated for 48 hrs by sulforhodamine B assay; details: pc-3, 48 h
HOP-92 = experiment: Cytotoxicity against human HOP92 cells assessed as effect on cell growth at 10 uM incubated for 48 hrs by sulforhodamine B assay; details: hop-92, 48 h
RXF 393 = experiment: Cytotoxicity against human RXF393 cells assessed as effect on cell growth at 10 uM incubated for 48 hrs by sulforhodamine B assay; details: rxf 393, 48 h
CCRF-CEM = experiment: Cytotoxicity against human CCRF-CEM cells assessed as effect on cell growth at 10 uM incubated for 48 hrs by sulforhodamine B assay
SF-539 = experiment: Cytotoxicity against human SF539 cells assessed as effect on cell growth at 10 uM incubated for 48 hrs by sulforhodamine B assay; details: sf-539, 48 h
BT-549 = experiment: Cytotoxicity against human BT549 cells assessed as effect on cell growth at 10 uM incubated for 48 hrs by sulforhodamine B assay; details: bt-549, 48 h
MCF7 = experiment: Cytotoxicity against human MCF7 cells assessed as effect on cell growth at 10 uM incubated for 48 hrs by sulforhodamine B assay; details: mcf7, 48 h
HL-60(TB) = experiment: Cytotoxicity against human HL-60(TB) cells assessed as effect on cell growth at 10 uM incubated for 48 hrs by sulforhodamine B assay
UO-31 = experiment: Cytotoxicity against human UO31 cells assessed as effect on cell growth at 10 uM incubated for 48 hrs by sulforhodamine B assay; details: uo-31, 48 h
NCI-H460 = experiment: Cytotoxicity against human NCI-H460 cells assessed as effect on cell growth at 10 uM incubated for 48 hrs by sulforhodamine B assay; details: nci-h460, 48 h

Measured: Activity

COc1cc(CNC(=O)[C@@H]2CCC(=O)N2)cc(OC)c1OC
Non-Toxic: all assays above

COc1ccc(CN2C(=O)CC[C@H]2C(=O)NCCc2ccccc2)cc1
Non-Toxic: all assays above

CN(C)/C=C1\C[C@H]2C(=O)N(/C(=C/N(C)C)c3ccncc3)C(N(C)C)N2C1=O (stereo not given in full)
Non-Toxic: all assays above

O=C(NCc1ccccc1Cl)[C@@H]1CCC(=O)N1Cc1ccccc1
Non-Toxic: all assays above

O=C1CCCC(C(=O)NCc2ccc(Cl)cc2Cl)N1 (stereo not given)
Non-Toxic: all assays above

COc1ccc(CNC(=O)[C@@H]2CCC(=O)N2Cc2ccc(Cl)cc2Cl)c(OC)c1
Non-Toxic: all assays above

C[n+]1ccccc1C(=O)NCc1ccc(Cl)cc1Cl.[I-]
Non-Toxic: all assays above

O=C(NCc1ccccc1Cl)[C@@H]1CCC(=O)N1Cc1ccc(Cl)cc1
Non-Toxic: all assays above

O=C(NCc1ccc(Cl)cc1Cl)[C@@H]1CCC(=O)N1C(c1ccc(Cl)cc1)c1ccc(Cl)cc1
Non-Toxic: all assays above

COC(=O)[C@@H]1C/C(=C\NCc2ccc(Cl)cc2Cl)C(=O)N1C(=O)OC
Non-Toxic: all assays above

O=C(NCc1ccccc1Cl)[C@@H]1CCC(=O)N1Cc1ccccc1Cl
Non-Toxic: all assays above

CN1C(=O)CC[C@H]1C(=O)NCc1cc(C(F)(F)F)ccc1Cl
Non-Toxic: all assays above

COc1ccc(CN2C(=O)[C@@H]3C/C(=C\N(C)C)C(=O)N3C2N(C)C)c(OC)c1 (stereo not given in full)
Non-Toxic: all assays above

CN(C)/C=C1\C[C@@H](C(=O)NCc2ccc(Cl)cc2Cl)N(c2cccs2)C1=O
Non-Toxic: all assays above
